Active and inactive are the calls of the source. The calls are words filed in the database; no cut-off is given here.
What was measured:
SK-MEL-5 = assay: Antitumor activity against human SK-MEL-5 cells after 48 hrs; type: functional; settings: SK-MEL-5, 48 h
HCT-15 = assay: Antitumor activity against human HCT15 cells after 48 hrs; type: functional; settings: HCT-15, 48 h
[1] = Antitumor activity against human MOLT4 cells after 48 hrs; type: functional; settings: MOLT-4, 48 h
SF-268 = assay: Antitumor activity against human SF268 cells after 48 hrs; type: functional; settings: SF-268, 48 h
[2] = Antitumor activity against human RXF393 cells after 48 hrs; type: functional; settings: RXF 393, 48 h
KM12 = assay: Antitumor activity against human KM12 cells after 48 hrs; type: functional; settings: KM12, 48 h
SK-MEL-2 = assay: Antitumor activity against human SK-MEL-2 cells after 48 hrs; type: functional; settings: SK-MEL-2, 48 h
CCRF-CEM = assay: Antitumor activity against human CCRF-CEM cells after 48 hrs; type: functional
[3] = Antitumor activity against human SF295 cells after 48 hrs; type: functional; settings: SF-295, 48 h
NCI-H226 = assay: Antitumor activity against human NCI-H226 cells after 48 hrs; type: functional; settings: NCI-H226, 48 h
[4] = Antitumor activity against human NCI-ADR-RES cells after 48 hrs; type: functional
[5] = Antitumor activity against human LOXIMVI cells after 48 hrs; type: functional; settings: LOX IMVI
U-251 = assay: Antitumor activity against human U251 cells after 48 hrs; type: functional; settings: U-251, 48 h
OVCAR-4 = assay: Antitumor activity against human OVCAR4 cells after 48 hrs; type: functional; settings: OVCAR-4, 48 h
[6] = Antitumor activity against human Hs578T cells after 48 hrs; type: functional; settings: Hs-578T
MDA-MB-231 = assay: Antitumor activity against human MDA-MB-231 cells after 48 hrs; type: functional; settings: MDA-MB-231, 48 h
SW-620 = assay: Antitumor activity against human SW620 cells after 48 hrs; type: functional; settings: SW-620, 48 h
SN12C = assay: Antitumor activity against human SN12C cells after 48 hrs; type: functional
PC-3 = assay: Antitumor activity against human PC3 cells after 48 hrs; type: functional; settings: PC-3, 48 h
[7] = Antitumor activity against human HCC2998 cells after 48 hrs; type: functional; settings: HCC 2998, 48 h
SR = assay: Antitumor activity against human SR cells after 48 hrs; type: functional
SNB-19 = assay: Antitumor activity against human SNB19 cells after 48 hrs; type: functional; settings: SNB-19, 48 h
EKVX = assay: Antitumor activity against human EKVX cells after 48 hrs; type: functional, cell-based
NCI-H522 = assay: Antitumor activity against human NCI-H522 cells after 48 hrs; type: functional; settings: NCI-H522, 48 h
MDA-MB-468 = assay: Antitumor activity against human MDA-MB-468 cells after 48 hrs; type: functional; settings: MDA-MB-468, 48 h
DU-145 = assay: Antitumor activity against human DU145 cells after 48 hrs; type: functional; settings: DU-145, 48 h
[8] = Antitumor activity against human SF539 cells after 48 hrs; type: functional; settings: SF-539, 48 h
A498 = assay: Antitumor activity against human A498 cells after 48 hrs; type: functional; settings: A498, 48 h
UACC-62 = assay: Antitumor activity against human UACC62 cells after 48 hrs; type: functional; settings: UACC-62, 48 h
OVCAR-5 = assay: Antitumor activity against human OVCAR5 cells after 48 hrs; type: functional; settings: OVCAR-5, 48 h
HOP-62 = assay: Antitumor activity against human HOP62 cells after 48 hrs; type: functional; settings: HOP-62, 48 h
[9] = Antitumor activity against human RPMI8226 cells after 48 hrs; type: functional; settings: RPMI-8226, 48 h
A549 = assay: Antitumor activity against human A549 cells after 48 hrs; type: functional; settings: A549, 48 h
786-0 = assay: Antitumor activity against human 786-0 cells after 48 hrs; type: functional; settings: 786-0, 48 h
HL-60(TB) = assay: Antitumor activity against human HL-60(TB) cells after 48 hrs; type: functional; settings: HL-60, 48 h
NCI-H460 = assay: Antitumor activity against human NCI-H460 cells after 48 hrs; type: functional; settings: NCI-H460, 48 h
UACC-257 = assay: Antitumor activity against human UACC257 cells after 48 hrs; type: functional; settings: UACC-257, 48 h
[10] = Antitumor activity against human HOP92 cells after 48 hrs; type: functional; settings: HOP-92, 48 h
NCI-H322M = assay: Antitumor activity against human NCI-H322M cells after 48 hrs; type: functional
[11] = Antitumor activity against human COLO205 cells after 48 hrs; type: functional; settings: COLO 205, 48 h
SK-OV-3 = assay: Antitumor activity against human SKOV3 cells after 48 hrs; type: functional; settings: SK-OV-3, 48 h
Malme-3M = assay: Antitumor activity against human MALME-3M cells after 48 hrs; type: functional
NCI-H23 = assay: Antitumor activity against human NCI-H23 cells after 48 hrs; type: functional; settings: NCI-H23, 48 h
HCT-116 = assay: Antitumor activity against human HCT116 cells after 48 hrs; type: functional; settings: HCT-116, 48 h
CAKI-1 = assay: Antitumor activity against human Caki1 cells after 48 hrs; type: functional; settings: CAKI-1, 48 h
OVCAR-8 = assay: Antitumor activity against human OVCAR8 cells after 48 hrs; type: functional; settings: OVCAR-8, 48 h
MDA-MB-435 = assay: Antitumor activity against human MDA-MB-435 cells after 48 hrs; type: functional; settings: MDA-MB-435, 48 h
IGROV-1 = assay: Antitumor activity against human IGROV1 cells after 48 hrs; type: functional; settings: IGROV-1, 48 h
ACHN = assay: Antitumor activity against human ACHN cells after 48 hrs; type: functional
TK-10 = assay: Antitumor activity against human TK10 cells after 48 hrs; type: functional; settings: TK-10, 48 h
MCF7 = assay: Antitumor activity against human MCF7 cells after 48 hrs; type: functional; settings: MCF7, 48 h
M14 = assay: Antitumor activity against human M14 cells after 48 hrs; type: functional; settings: M14, 48 h
OVCAR-3 = assay: Antitumor activity against human OVCAR3 cells after 48 hrs; type: functional; settings: OVCAR-3, 48 h
SK-MEL-28 = assay: Antitumor activity against human SK-MEL-28 cells after 48 hrs; type: functional; settings: SK-MEL-28, 48 h
SNB-75 = assay: Antitumor activity against human SNB75 cells after 48 hrs; type: functional; settings: SNB-75, 48 h
K562 = assay: Antitumor activity against human K562 cells after 48 hrs; type: functional; settings: K562, 48 h
T47D = assay: Antitumor activity against human T47D cells after 48 hrs; type: functional
HT-29 = assay: Antitumor activity against human HT-29 cells after 48 hrs; type: functional; settings: HT-29, 48 h
[12] = Antitumor activity against human BT549 cells after 48 hrs; type: functional; settings: BT-549, 48 h

Which results are given for `COc1cc(OC)cc(/C(C#N)=C/c2cnc3ccccc3c2)c1`?
GI50 (SK-MEL-5): 249 nM; GI50 (HCT-15): 455 nM; GI50 [1]: 378 nM; GI50 (SF-268): 654 nM; GI50 [2]: 297 nM; GI50 (KM12): 409 nM; GI50 (SK-MEL-2): 709 nM; GI50 (CCRF-CEM): 332 nM; GI50 [3]: 243 nM; GI50 (NCI-H226): 62.2 µM; GI50 [4]: 224 nM; GI50 [5]: 672 nM; GI50 (U-251): 374 nM; GI50 (OVCAR-4): 1730 nM; GI50 [6]: 715 nM; GI50 (MDA-MB-231): 1150 nM; GI50 (SW-620): 352 nM; GI50 (SN12C): 661 nM; GI50 (PC-3): 506 nM; GI50 [7]: 1450 nM; GI50 (SR): inactive; GI50 (SNB-19): 614 nM; GI50 (EKVX): inactive; GI50 (NCI-H522): 69 nM; GI50 (MDA-MB-468): 217 nM; GI50 (DU-145): 505 nM; GI50 [8]: 289 nM; GI50 (A498): 333 nM; GI50 (UACC-62): 357 nM; GI50 (OVCAR-5): 587 nM; GI50 (HOP-62): 793 nM; GI50 [9]: 332 nM; GI50 (A549): 556 nM; GI50 (786-0): 484 nM; GI50 (HL-60(TB)): 234 nM; GI50 (NCI-H460): 362 nM; GI50 (UACC-257): 12.8 µM; GI50 [10]: 3.09 µM; GI50 (NCI-H322M): 903 nM; GI50 [11]: 398 nM; GI50 (SK-OV-3): 576 nM; GI50 (Malme-3M): 635 nM; GI50 (NCI-H23): 747 nM; GI50 (HCT-116): 420 nM; GI50 (CAKI-1): 223 nM; GI50 (OVCAR-8): 584 nM; GI50 (MDA-MB-435): 53 nM; GI50 (IGROV-1): 3.5 µM; GI50 (ACHN): 1190 nM; GI50 (TK-10): 17.7 µM; GI50 (MCF7): 333 nM; GI50 (M14): 310 nM; GI50 (OVCAR-3): 279 nM; GI50 (SK-MEL-28): 1400 nM; GI50 (SNB-75): 224 nM; GI50 (K562): 243 nM; GI50 (T47D): 628 nM; GI50 (HT-29): 362 nM; GI50 [12]: 388 nM

Source: ChEMBL document CHEMBL3585283, “Synthesis and evaluation of a series of quinolinyl trans-cyanostilbene analogs as anticancer agents” (2014)
